Experimental data reported in patent publication US20190270733A1, “Quinoline and Isoquinoline Based HDAC Inhibitors and Methods of Use Thereof” (Reaction Biology Corp., priority 2018, published 2019).
Where “and” joins values, the source holds several entries; their conditions need not be identical. Identical values can stand only once. Like-named read-outs stand apart in the source and are kept apart here.

Key:
Human HDAC2 = biological target: T1, Human HDAC2 (Homo sapiens, UniProt Q92769); experiment: Biochemical HDAC assay, HDAC2; conditions: incubation time 120 min
T1 construct: full-length with a C-terminal His-tag; His-tag (C); made in house
Description: Human HDAC2 (GenBank Accession No. NM_001527), full-length with a C-terminal His-tag, MW=56 kDa, was expressed in a baculovirus expression system.
(§1) • I. Compound handling: Testing compounds were dissolved in 100% DMSO to a specific concentration. The serial dilution was conducted by epMotion 5070 in DMSO. • II. HDAC reaction buffer: 50 mM Tris-HCl, pH8.0, 137 mM NaCl, 2.7 mM KCl, and 1 mM MgCl2, Added fresh: 1 mg/ml BSA, 1% DMSO. • III. Substrate: Fluorogenic HDAC General Substrate for HDAC1, 2, 3, 6, 10, 11 ans Sirt1, 2 and 3: Arg-His-Lys-Lys(Ac); HDAC8 only substrate: Arg-His-Lys(Ac)-Lys(Ac); Class2A Substrate (HDAC4, 5, 7 and 9): Acetyl-Lys(trifluoroacetyl)-AMC; Sirt5 substrate: Ac-Lys(succinyl)-AMC. • IV. General Reaction Procedure: (Standard IC50 determination) • a. Delivered 2× enzyme in wells of reaction plate except No Enzyme (No En) control wells. Add buffer in No En wells. • b. Delivered compounds in 100% DMSO into the enzyme mixture by Acoustic technology (Echo550; nanoliter range). Spin down and pre-incubation. • c. Delivered 2× Substrate Mixture (Fluorogenic HDAC Substrate and co-factor (500 μM of Nicotinamide adenine dinucleotide (NAD^+) in all Sirt assay) in all reaction wells to initiate the reaction. Spin and shake. • d. Incubated for 1-2 hr. at 30° C. with seal. • e. Added Developer with Trichostatin A (or TMP269 or NAD^+) to stop the reaction and to generate fluorescent color. • f. Fluorescence was read (excitatory, 360; emission, 460) using the EnVision Multilabel Plate Reader (Perkin Elmer) • g. Endpoint reading was taken for analysis after the development reaches plateau. • V. Data Analysis: The percentages of enzyme activity (relative to DMSO controls) and IC50 values were calculated using the GraphPad Prism 4 program based on a sigmoidal dose-response equation.
(§2) Compounds with indicated doses was tested in the biochemical assays of HDAC1, HDAC2, HDAC3, HDAC4, HDAC5, HDAC6, HDAC7, HDAC8, HDAC9, HDAC10, or HDAC11 enzyme. The incubation time in HDAC1/2 assays are 120 min, and that for other HDACs are 10 min. The curve fit and IC50 values were calculated using the GraphPad Prism 4 program based on a sigmoidal dose-response equation.

[1] = biological target: T2, Complex of human HDAC3 and human NCOR2 (Homo sapiens, UniProt O15379); experiment: Biochemical HDAC assay, HDAC3; conditions: incubation time 10 min
T2 construct: full-length with a C-terminal His tag; His tag (C); made in house
Description: Complex of human HDAC3 (GenBank Accession No. NM_003883), full-length with a C-terminal His tag, MW=49.7 kDa, and human NCOR2 (amino acid 395-489) (GenBank Accession No. NM_006312), N-terminal GST tag, MW=37.6 kDa, was co-expressed in a baculovirus expression system.
as §1, §2

Human HDAC8 = biological target: T3, Human HDAC8 (Homo sapiens, UniProt Q9BY41); experiment: Biochemical HDAC assay, HDAC8; conditions: incubation time 10 min
T3 construct: full-length with a C-terminal His tag; His tag (C); made in house
T3 sequence (Q9BY41 1-377): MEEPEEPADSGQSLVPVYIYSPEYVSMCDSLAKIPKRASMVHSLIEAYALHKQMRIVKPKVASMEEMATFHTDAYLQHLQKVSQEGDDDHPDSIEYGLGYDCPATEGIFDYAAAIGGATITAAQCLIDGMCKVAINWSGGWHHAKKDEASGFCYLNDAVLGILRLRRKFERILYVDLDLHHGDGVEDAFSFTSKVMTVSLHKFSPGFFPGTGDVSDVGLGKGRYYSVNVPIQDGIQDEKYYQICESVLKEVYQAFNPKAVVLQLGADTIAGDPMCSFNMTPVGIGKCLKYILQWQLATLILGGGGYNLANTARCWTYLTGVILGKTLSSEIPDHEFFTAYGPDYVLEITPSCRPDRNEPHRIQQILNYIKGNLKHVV
Description: Human HDAC8 (GenBank Accession No. NM_018486), full-length with a C-terminal His tag, MW=46.4 kDa, was expressed in a baculovirus expression system.
as §1, §2

[2] = Mouse plasma PK (IV and PO dosing); assay type: in vivo, Male C57 Bl/6J mice; conditions: for AUC(0-inf): read-out: AUCINF—obs (converted); for MRT inf: read-out: MRTINF—obs
Description: In vivo PK (pharmacokinetics) studies were run at Scripps Florida DMPK Core facility. Mouse plasma PK data was obtained using the compound of Example 5 (N-(2-amino-5-(thiophen-2-yl)phenyl)-2-oxo-1,2,3,4-tetrahydroquinoline-6-carboxamide)
Dose: 1 mg/kg intravenous (IV), 7 mg/kg oral dosing (PO)
Formulation: 0.1 mg/mL (IV) and 1 mg/mL (PO) solution in 10/10/80 DMSO/Tween80/Water
Mice Info: Male C57 Bl/6J
Plasma PK were evaluated in mice after administration of compound Example 5. […] (Tmax), maximal concentration (Cmax), observed clearance (Cl_obs), mean residential time (MRT), and observed volume distribution (Vss_obs) were also quantified (Tables 2 and 3).

[3] = IV 1 mg/kg, mouse plasma, average
[4] = IV 1 mg/kg, mouse plasma, individual mice, 1 mg/kg
[5] = IV administration, mouse plasma
[6] = PO 7 mg/kg, mouse plasma, average
[7] = PO 7 mg/kg, mouse plasma, individual mice, 7 mg/kg
[8] = male, C57 Bl/6J, mouse, plasma, iv, 1 mg/kg, IV 1 mg/kg, mouse plasma, average
[9] = male, C57 Bl/6J, mouse, plasma, iv, 1 mg/kg, IV 1 mg/kg, mouse plasma, individual mice
[10] = male, C57 Bl/6J, mouse, plasma, po, 7 mg/kg, PO 7 mg/kg, mouse plasma, average
[11] = male, C57 Bl/6J, mouse, plasma, po, 7 mg/kg, PO 7 mg/kg, mouse plasma, individual mice

T1 sequence (Q92769 whole entry): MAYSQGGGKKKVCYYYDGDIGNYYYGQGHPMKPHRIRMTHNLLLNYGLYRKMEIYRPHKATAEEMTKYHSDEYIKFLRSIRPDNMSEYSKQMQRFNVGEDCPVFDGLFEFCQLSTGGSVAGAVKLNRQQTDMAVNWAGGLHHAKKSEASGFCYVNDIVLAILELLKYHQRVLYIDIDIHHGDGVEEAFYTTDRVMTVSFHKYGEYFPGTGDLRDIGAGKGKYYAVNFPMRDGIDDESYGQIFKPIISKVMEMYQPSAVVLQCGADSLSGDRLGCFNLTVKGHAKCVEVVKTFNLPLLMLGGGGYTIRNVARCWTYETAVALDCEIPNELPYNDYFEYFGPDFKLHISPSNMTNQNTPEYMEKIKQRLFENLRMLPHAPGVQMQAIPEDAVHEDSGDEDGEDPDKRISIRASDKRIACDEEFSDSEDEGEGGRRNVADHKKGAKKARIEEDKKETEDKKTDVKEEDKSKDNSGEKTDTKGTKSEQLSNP
T2 sequence (O15379 whole entry): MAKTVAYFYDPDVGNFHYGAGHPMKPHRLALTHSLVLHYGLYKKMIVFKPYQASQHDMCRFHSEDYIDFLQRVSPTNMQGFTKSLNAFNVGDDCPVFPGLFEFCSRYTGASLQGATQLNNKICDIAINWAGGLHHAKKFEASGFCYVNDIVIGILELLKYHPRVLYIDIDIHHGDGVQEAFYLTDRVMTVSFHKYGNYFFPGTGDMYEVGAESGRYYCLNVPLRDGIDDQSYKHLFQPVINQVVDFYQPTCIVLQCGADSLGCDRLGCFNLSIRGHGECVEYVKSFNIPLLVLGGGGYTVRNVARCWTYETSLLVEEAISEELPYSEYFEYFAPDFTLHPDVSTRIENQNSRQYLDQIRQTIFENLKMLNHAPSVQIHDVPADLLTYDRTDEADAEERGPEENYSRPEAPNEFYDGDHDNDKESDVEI
T2 sequence (Q9Y618 395-489 partner limits assumed): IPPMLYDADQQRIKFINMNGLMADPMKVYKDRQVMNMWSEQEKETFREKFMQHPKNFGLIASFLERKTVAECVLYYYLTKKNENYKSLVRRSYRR

Nc1ccc(-c2cccs2)cc1NC(=O)c1ccc2c(c1)CCC(=O)N2 [Example 5, N-(2-amino-5-(thiophen-2-yl)phenyl)-2-oxo-1,2,3,4-tetrahydroquinoline-6-carboxamide]
IC50 (Human HDAC2): 0.034 µM
IC50 [1]: > 10 µM
IC50 (Human HDAC8): > 10 µM
AUC (% Extrap) [2, 3]: 1.42%
Cl_obs [2, 3]: 5.33 mL/min/kg
Vss_obs [2, 3]: 0.40 L/kg
AUC (% Extrap) [2, 4]: 1.31% and 1.23% and 1.71%
AUCINF—obs [2, 4]: 184402 ng·min/mL and 207009 ng·min/mL
AUClast [2, 4]: 8.36 μM · hr and 9.34 μM · hr and 182140 min * ng/mL and 203467 min * ng/mL
Cl_obs [2, 4]: 5.75 mL/min/kg and 5.42 mL/min/kg and 4.83 mL/min/kg
Cmax [2, 4]: 2480 ng/mL and 4540 ng/mL and 5820 ng/mL
MRTINF—obs [2, 4]: 1.19 h and 1.14 h
T1/2 [2, 4]: 1.52 h and 1.59 h
Tmax [2, 4]: 0.08 hr (2×) and 0.25 hr
Vss_obs [2, 4]: 0.48 L/kg and 0.39 L/kg and 0.33 L/kg
Cmax ([2]; IV 1 mg/kg, mouse plasma, individual mice, 1 mg/kg, read-out: Cmax): 6.83 µM and 12.5 µM and 16 µM
clearance (in words) [2, 5]: low clearance
volume (in words) [2, 5]: low volume
AUC (% Extrap) [2, 6]: 9.95%
Cl_obs [2, 6]: 25.89 mL/min/kg
AUC (% Extrap) [2, 7]: 6.21% and 14.68% and 8.96%
AUCINF—obs [2, 7]: 227793 ng·min/mL and 250553 ng·min/mL
AUClast [2, 7]: 8.92 μM · hr and 10.47 μM · hr and 194363 min * ng/mL and 228113 min * ng/mL
Cl_obs [2, 7]: 18.99 mL/min/kg and 30.73 mL/min/kg and 27.94 mL/min/kg
Cmax [2, 7]: 1590 ng/mL and 1620 ng/mL
T1/2 [2, 7]: 3.30 h and 2.62 h
Tmax [2, 7]: 1.00 hr and 0.25 hr (2×)
Cmax ([2]; PO 7 mg/kg, mouse plasma, individual mice, 7 mg/kg, read-out: Cmax): 4.38 µM and 4.46 µM
AUC ([2]; male, C57 Bl/6J, 1 mg/kg, IV administration, mouse plasma, read-out: AUC): 8.5 µM·h
AUC ([2]; male, C57 Bl/6J, 7 mg/kg, PO dosing, mouse plasma, read-out: AUC (area under the curve)): 11 to 12 µM·h
AUC(0-t) [2, 8]: 8.53 µM·h and 3100 ng·h/mL
AUC(0-inf) [2, 8]: 3140 ng·h/mL
Cmax ([2]; male, C57 Bl/6J, mouse, plasma, iv, 1 mg/kg, IV 1 mg/kg, mouse plasma, average, read-out: Cmax): 4280 ng/mL and 11.8 µM
MRT inf [2, 8]: 1.24 h
half-life ([2]; male, C57 Bl/6J, mouse, plasma, iv, 1 mg/kg, IV 1 mg/kg, mouse plasma, average, read-out: T1/2 (converted)): 1.48 h
Tmax ([2]; male, C57 Bl/6J, mouse, plasma, iv, 1 mg/kg, IV 1 mg/kg, mouse plasma, average, read-out: Tmax): 0.14 h
AUC(0-t) [2, 9]: 7.88 µM·h and 2860 ng·h/mL
AUC(0-inf) [2, 9]: 2900 ng·h/mL
MRT inf [2, 9]: 1.39 h
half-life ([2]; male, C57 Bl/6J, mouse, plasma, iv, 1 mg/kg, IV 1 mg/kg, mouse plasma, individual mice, read-out: T1/2 (converted)): 1.34 h
half-life ([2]; male, C57 Bl/6J, mouse, plasma, iv, 1 mg/kg, IV administration, mouse plasma, read-out: half-life (T1/2) (converted)): 1.5 h
AUC(0-t) [2, 10]: 11.8 µM·h and 4270 ng·h/mL
AUC(0-inf) [2, 10]: 4710 ng·h/mL
Cmax ([2]; male, C57 Bl/6J, mouse, plasma, po, 7 mg/kg, PO 7 mg/kg, mouse plasma, average, read-out: Cmax): 1960 ng/mL and 5.4 µM
half-life ([2]; male, C57 Bl/6J, mouse, plasma, po, 7 mg/kg, PO 7 mg/kg, mouse plasma, average, read-out: T1/2 (converted)): 2.66 h
Tmax ([2]; male, C57 Bl/6J, mouse, plasma, po, 7 mg/kg, PO 7 mg/kg, mouse plasma, average, read-out: Tmax): 0.5 h
AUC(0-t) [2, 11]: 15.9 µM·h and 5760 ng·h/mL
AUC(0-inf) [2, 11]: 6140 ng·h/mL
Cmax ([2]; male, C57 Bl/6J, mouse, plasma, po, 7 mg/kg, PO 7 mg/kg, mouse plasma, individual mice, read-out: Cmax): 2670 ng/mL and 7.36 µM
half-life ([2]; male, C57 Bl/6J, mouse, plasma, po, 7 mg/kg, PO 7 mg/kg, mouse plasma, individual mice, read-out: T1/2 (converted)): 2.05 h
half-life ([2]; male, C57 Bl/6J, mouse, plasma, po, 7 mg/kg, PO dosing, mouse plasma, read-out: half-life (converted)): 2.7 h
bioavailability ([2]; male, C57 Bl/6J, plasma, PO 7 mg/kg vs IV 1 mg/kg, mouse, read-out: % F (bioavailability)): 20%
